Measured values as given in PubChem BioAssay AID1918998 (Molecular Pharmacology Branch, DTP, NCI, 2023).
Several values for one entry are separate records, joined by “and”; a condition that tells them apart may be missing. Identical values can stand only once.

Tested on: 521955-158-R2-J5-PDC complex spheroid growth
Assay: Anticancer human tumor 521955-158-R2-J5-PDC patient-derived pancreatic carcinoma cell line growth inhibition [AhR]
Conditions: for viability, T/C: stronger effect = lower value
Excerpt: Multicellular complex tumor spheroid response to aryl hydrocarbon receptor antagonists in combination with a variety of drugs and investigational agents in selected tumor cell lines
The current study was undertaken to assess response to aryl hydrocarbon receptor antagonists in combination with standard-of-care drugs and investigational agents in solid tumor complex spheroid models. Complex spheroids include a stromal component modeled by human endothelial cells (HUVEC) and fibroblasts modeled by human mesenchymal stem cells (MSCs). The concentration ranges selected for each drug and investigational agent were based upon clinically achievable concentrations if the clinical Cmax of the agent was known.
Compounds. The drugs and investigational agents: BAY 2416964 (NSC825713), GNF351 (NSC835774), CH-223191 (NSC835775), CPI-455 (NSC825282), aza-TdCyd (NSC777586), decitabine (NSC127716), belinostat (NSC758774), entinostat (NSC756642), pevonedistat (NSC761192), tazemetostat (NSC777109), talazoparib (NSC765396), olaparib (NSC753686), selinexor (NSC780203), nedisertib (M3814, NSC802822), bortezomib (NSC756655), venetoclax (NSC766270), doxorubicin (NSC123127), elimusertib (BAY189344, NSC800525), ceralasertib (AZD6738, NSC777638), TAK-243 (NSC785004), alisertib (NSC759677), etoposide (NSC141540), topotecan (NSC609699), eribulin (NSC707389), gemcitabine (NSC613327), carboplatin (NSC241240), cisplatin (NSC119875), and SN-38 (NSC673596) were obtained from the National Cancer Institute (NCI) Developmental Therapeutics Program Chemical Repository (32). The FDA-approved anticancer drug set is available from the Developmental Therapeutics Program at https://dtp.cancer.gov/organization/dscb/obtaining/available plates.htm. […] The stock solutions were prepared in dimethyl sulfoxide (DMSO, Sigma-Aldrich, St. Louis, MO, cat. D2650), except for the platinum compounds which were prepared in saline (Quality Biological, Gaithersburg, MD, cat. 114-055-101), at 800-fold the tested concentration and stored at -70 degrees C prior to their use. All drugs and investigational agents were tested over a range starting from a high concentration at or near the clinical Cmax and decreasing in half-log increments. If the clinical Cmax for an agent had not been determined, the highest concentration tested was 10 microM (Table 1).
Cell Culture. All cells were maintained in an incubator at 37 degrees C and 5% CO2 with 95% humidity. The PDC lines were cultured according to standard operating procedures established by the NCI PDMR (https://pdmr.cancer.gov). Briefly, all PDCs were thawed and cultured in Matrigel-coated flasks prepared with a working solution of 1X Ham's F-12 nutrient mix, without supplementation (Invitrogen, Waltham, MA, cat. 11765054), 100 U/mL penicillin-streptomycin (Invitrogen, cat. 15140122), and 2.5% Matrigel (Corning Inc., Corning, NY, cat. 354248) for the first three passages. All PDCs were cultured in complete DMEM/F-12 media containing advanced DMEM/F-12 (Invitrogen, cat. 12634028), 4.9% defined fetal bovine serum, heat inactivated (HyClone Laboratories Inc., Logan, UT, cat. SH30070.03HI), 389 ng/mL hydrocortisone (Sigma-Aldrich, cat. H4001), 9.7 ng/mL human EGF recombinant protein (Invitrogen, cat. PHG0313), 23.4 microg/mL adenine (Sigma-Aldrich, cat. A2786), 97.3 U/mL penicillin-streptomycin (Invitrogen, cat. 15140122), 1.9 mM L-glutamine (Invitrogen, cat. 25030081), and 9.7 microM Y-27632 dihydrochloride (Tocris Bioscience, Bristol, United Kingdom, cat. 1254). The PDCs were cultured in complete DMEM/F12 media without 10 microM Y-27632 dihydrochloride for at least two passages prior to the screen. The established cell lines NCI-H1341 and […] were cultured in DMEM/F-12, HEPES (Invitrogen, cat. 11330032), 5% defined fetal bovine serum (HyClone Laboratories Inc., cat. SH30070.03), ITS premix universal culture supplement [insulin (5 microg/mL), transferrin (5 microg/mL), and selenious acid (5 ng/mL)] […]

[1] = curve of first compound, second compound 0.1 µM
[2] = curve of first compound, second compound 0.316 µM
[3] = curve of first compound, second compound 1 µM
[4] = curve of first compound, second compound 3.16 µM
[5] = curve of first compound, second compound 10 µM
[6] = second compound 0.1 µM, first compound 0.0316 µM
[7] = second compound 0.1 µM, first compound 0.1 µM
[8] = second compound 0.1 µM, first compound 0.316 µM
[9] = second compound 0.1 µM, first compound 1 µM
[10] = second compound 0.1 µM, first compound 3.16 µM
[11] = second compound 0.1 µM, first compound 10 µM
[12] = second compound 0.316 µM, first compound 0.0316 µM
[13] = second compound 0.316 µM, first compound 0.1 µM
[14] = second compound 0.316 µM, first compound 0.316 µM
[15] = second compound 0.316 µM, first compound 1 µM
[16] = second compound 0.316 µM, first compound 3.16 µM
[17] = second compound 0.316 µM, first compound 10 µM
[18] = second compound 1 µM, first compound 0.0316 µM
[19] = second compound 1 µM, first compound 0.1 µM
[20] = second compound 1 µM, first compound 0.316 µM
[21] = second compound 1 µM, first compound 1 µM
[22] = second compound 1 µM, first compound 3.16 µM
[23] = second compound 1 µM, first compound 10 µM
[24] = second compound 3.16 µM, first compound 0.0316 µM
[25] = second compound 3.16 µM, first compound 0.1 µM
[26] = second compound 3.16 µM, first compound 0.316 µM
[27] = second compound 3.16 µM, first compound 1 µM
[28] = second compound 3.16 µM, first compound 3.16 µM
[29] = second compound 3.16 µM, first compound 10 µM
[30] = second compound 10 µM, first compound 0.0316 µM
[31] = second compound 10 µM, first compound 0.1 µM
[32] = second compound 10 µM, first compound 0.316 µM
[33] = second compound 10 µM, first compound 1 µM
[34] = second compound 10 µM, first compound 3.16 µM
[35] = second compound 10 µM, first compound 10 µM
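Wherever viability, T/C is given: spheroids mix tumor cells with HUVEC endothelium and human MSC stroma; luminescence taken as viability surrogate after a week of drug exposure.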

For `CC1(C)CCC(CN2CCN(c3ccc(C(=O)NS(=O)(=O)c4ccc(NCC5CCOCC5)c([N+](=O)[O-])c4)c(Oc4cnc5[nH]ccc5c4)c3)CC2)=C(c2ccc(Cl)cc2)C1` + Cc1cncc(-c2nc(NCCc3c[nH]c4ccccc34)c3ncn(C(C)C)c3n2)c1, the IC50 [1] was over 10 µM, the IC50 [2] was over 10 µM and the IC50 [3] was over 10 µM. It also gave an IC50 [4] of over 10 µM, an IC50 [5] of over 10 µM and a viability, T/C [6] of 110%. For the same compound, the viability, T/C [7] was 111%, the viability, T/C [8] was 102% and the viability, T/C [9] was 104%. It also gave a viability, T/C [10] of 92.8%, a viability, T/C [11] of 74.7% and a viability, T/C [12] of 104%. It also gave a viability, T/C [13] of 109%, a viability, T/C [14] of 119% and a viability, T/C [15] of 105%. It also gave a viability, T/C [16] of 99.9%, a viability, T/C [17] of 79.5% and a viability, T/C [18] of 111%. It also gave a viability, T/C [19] of 124%, a viability, T/C [20] of 121% and a viability, T/C [21] of 111%. The viability, T/C [22] was 111%, the viability, T/C [23] was 76.3% and the viability, T/C [24] was 146%. For the same compound, the viability, T/C [25] was 123%, the viability, T/C [26] was 133% and the viability, T/C [27] was 120%. It also gave a viability, T/C [28] of 113%, a viability, T/C [29] of 94.9% and a viability, T/C [30] of 148%. For the same compound, the viability, T/C [31] was 147%, the viability, T/C [32] was 138% and the viability, T/C [33] was 156%. The viability, T/C [34] was 118% and the viability, T/C [35] was 102%.
`Cn1ncnc1C1c2n[nH]c(=O)c3cc(F)cc(c23)NC1c1ccc(F)cc1` (configuration not stated) + CC(CO)NC(=O)c1cc(-c2ccc(Cl)cc2)nn(-c2cnn(C)c2)c1=O showed an IC50 [1] of over 0.1 µM, an IC50 [2] of over 0.1 µM and an IC50 [3] of over 0.1 µM. It also gave an IC50 [4] of over 0.1 µM, an IC50 [5] of over 0.1 µM and a viability, T/C (second compound 0.1 µM, first compound 0.000316 µM) of 99.2%. It also gave a viability, T/C (second compound 0.1 µM, first compound 0.001 µM) of 112%, a viability, T/C (second compound 0.1 µM, first compound 0.00316 µM) of 116% and a viability, T/C (second compound 0.1 µM, first compound 0.01 µM) of 108%. For the same compound, the viability, T/C [6] was 105%, the viability, T/C [7] was 83% and the viability, T/C (second compound 0.316 µM, first compound 0.000316 µM) was 117%. The viability, T/C (second compound 0.316 µM, first compound 0.001 µM) was 107%, the viability, T/C (second compound 0.316 µM, first compound 0.00316 µM) was 120% and the viability, T/C (second compound 0.316 µM, first compound 0.01 µM) was 119%. The viability, T/C [12] was 74.1%, the viability, T/C [13] was 103% and the viability, T/C (second compound 1 µM, first compound 0.000316 µM) was 103%. The viability, T/C (second compound 1 µM, first compound 0.001 µM) was 134%, the viability, T/C (second compound 1 µM, first compound 0.00316 µM) was 112% and the viability, T/C (second compound 1 µM, first compound 0.01 µM) was 114%. The viability, T/C [18] was 106%, the viability, T/C [19] was 100% and the viability, T/C (second compound 3.16 µM, first compound 0.000316 µM) was 118%. It also gave a viability, T/C (second compound 3.16 µM, first compound 0.001 µM) of 121%, a viability, T/C (second compound 3.16 µM, first compound 0.00316 µM) of 86.1% and a viability, T/C (second compound 3.16 µM, first compound 0.01 µM) of 89.3%. The viability, T/C [24] was 86.1%, the viability, T/C [25] was 78.5% and the viability, T/C (second compound 10 µM, first compound 0.000316 µM) was 104%. For the same compound, the viability, T/C (second compound 10 µM, first compound 0.001 µM) was 100%, the viability, T/C (second compound 10 µM, first compound 0.00316 µM) was 99.7% and the viability, T/C (second compound 10 µM, first compound 0.01 µM) was 82.6%. The viability, T/C [30] was 60.1% and the viability, T/C [31] was 77.8%.
In the case of `CC1COCCN1c1cc(-c2ccnn2C)c2ccnc(-c3ccn[nH]3)c2n1` (configuration not stated), the viability, T/C (compound 0.00316 µM) is reported as 96.3% and 94.8% and 101%, the viability, T/C (compound 0.01 µM) is reported as 98.2% and 92.8% and 104% and the viability, T/C (compound 0.0316 µM) is reported as 97.8% and 84.1% and 95.1%. The viability, T/C (compound 0.1 µM) was 48% and 79.2% and 42.4%, the viability, T/C (compound 0.316 µM) was 15.5% and 19.4% and 16.3% and the viability, T/C (compound 1 µM) was 19.2% and 18.6% and 16%. The IC50 (curve of compound) was 0.0955 µM and 0.176 µM and 0.0846 µM.
With `O=C(C=Cc1cccc(S(=O)(=O)Nc2ccccc2)c1)NO` + CC(CO)NC(=O)c1cc(-c2ccc(Cl)cc2)nn(-c2cnn(C)c2)c1=O the IC50 [1] was 4.62 µM, the IC50 [2] was 4.89 µM and the IC50 [3] was 3.6 µM. The IC50 [4] was 5.85 µM, the IC50 [5] was 4.59 µM and the viability, T/C [6] was 108%. For the same compound, the viability, T/C [7] was 107%, the viability, T/C [8] was 122% and the viability, T/C [9] was 93.2%. It also gave a viability, T/C [10] of 58.3%, a viability, T/C [11] of 35.5% and a viability, T/C [12] of 114%. For the same compound, the viability, T/C [13] was 135%, the viability, T/C [14] was 131% and the viability, T/C [15] was 91.2%. The viability, T/C [16] was 62.6%, the viability, T/C [17] was 35% and the viability, T/C [18] was 131%. The viability, T/C [19] was 126%, the viability, T/C [20] was 120% and the viability, T/C [21] was 92.9%. The viability, T/C [22] was 53.2%, the viability, T/C [23] was 26.5% and the viability, T/C [24] was 117%. The viability, T/C [25] was 101%, the viability, T/C [26] was 114% and the viability, T/C [27] was 98.1%. The viability, T/C [28] was 67.3%, the viability, T/C [29] was 35.1% and the viability, T/C [30] was 94.1%. The viability, T/C [31] was 90.6%, the viability, T/C [32] was 82.8% and the viability, T/C [33] was 86.2%. The viability, T/C [34] was 61.4% and the viability, T/C [35] was 25.1%.
